Experimental data reported in publication PMC8512853, “Synthesis, Bioactivity, Pharmacokinetic and Biomimetic Properties of Multi-Substituted Coumarin Derivatives” (Molecules, 2021).

System: HaCaT cells
Test: MTT cell viability assay, HaCaT
Assay type: cell-based, human
Conditions: 100 μM
Method in brief: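 HaCaT cells seeded, grown 24 h (37 °C, 5% CO2), then exposed 24 h to each compound at 100 μM in DMEM; MTT added for 4 h, formazan dissolved in DMSO, OD read at 540 nm (reference 720 nm). Triplicates versus untreated cells, no-cell blank and 100 μM silibinin as cell-killing standard.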

| Compound | cytotoxicity in HaCaT |
| --- | --- |
| Cc1c(-c2ccc(Cl)cc2)c(=O)oc2cccc(O)c12 [Compound 4c, 3-(4-chlorophenyl)-5-hydroxy-4-methyl-chromen-2-one] | 63.7% |
| Cc1c(-c2ccc(O)cc2)c(=O)oc2ccc(Cl)cc12 [Compound 4j, 6-chloro-3-(4-hydroxyphenyl)-4-methyl-chromen-2-one] | 73% |
